How the values were obtained:
[1] = system: plasma protein; test: Plasma protein binding (mouse); format: in vitro ADME
Protocol: A compound solution (1 mM in DMSO) (5 μL), according to the invention is added to the respective plasma matrices of rat or human or mouse (1 ml).
Add 150 ul of phosphate buffer to receiving side of the dialysis well. […] Precipitate with Acetonitrile and dilute samples prior to analysis in 1.5 ml polypropylene tubes. Remove 50 μl from the sample side of dialysis well and add 50 μl of phosphate buffer +300 μl of acetonitrile containing IS. Remove 50 μl from the buffer side of the dialysis well and add 50 μl of respective matrix plasma +300 μl of ACN. Then vortexed and centrifuged for 5 min, and supernatant is taken and injected into LCMS.
Different test concentration ranging from 0.1 μM to 20 μM are made in methanol:water (90:10). Test solutions are added to the premixed matrix containing plasma:phosphate buffer (50:50). Precipitate with 300 μl of ice cold acetonitrile containing IS, vortexes and centrifuged. Supernatant is taken and injected into LCMS. Percentage of plasma protein binding was obtained via Equation(2):% Fraction unbound=(concentration on the buffer side/concentration on the sample side)*100 Table-7

[2] = In vitro stability in mouse plasma; format: in vitro ADME; settings: conversion to rivaroxaban seen from zero min
Protocol: The final concentration of the test compound in the assay is 5 micromolar. […] C. The 100 microliters of aliquot at time point was removed and diluted with ice cold acetonitrile containing IS (200.mu·L) to stop the reactions. Samples are centrifuged at 10,000 RPM for 5 minutes to precipitate proteins. Supernatants are transferred to micro centrifuge tubes and stored at −20° C. for analysis of LC/MS/MS. The percent parent remaining of the test substance is calculated as ratio of peak area at each time point to peak area ratio at zero min, multiplied by 100.
API 4000, ESI Agilent 1100 column: Gemini Nx 100 mm×4.6 mm 5.1; column temperature: 30° C.; eluent A: 0.1% formic acid in water, eluent B: acetonitrile; gradient: 0-2.5 min 95% A, 5% B; 2.5-2.6 min 5% A, 95% B; 2.6-4.2 min 95% A, 5% B; flow rate: 0.8 ml/min; ESI. Q1:464.098, Q3:144.255

[3] = Intravenous and oral pharmacokinetics in Wistar rats; format: in vivo; settings: for plasma exposure (AUC, C max) as compared to Rivaroxaban: Wistar rats, IV 1 mg/kg and PO 10 mg/kg
Protocol: On the day before administration of the substance, a catheter for obtaining blood is implanted in the jugular vein of the experimental animals (male Wistar rats, body weight 200-250 g) under Isofluran® anesthesia.
Blood samples (8-12 time points) are taken through the catheter sequentially over the course of 24 h after administration of the substance. The administration volume is 10 ml/kg for oral and 1 ml/kg for IV in male Wistar rats. Intravenous administration is via a formulation of 2% N—N Dimethyl acetamide/ethanol 10%/PEG400 (30%)/water for IV injection (58%) and via Tween80/PEG400/sterile water in the case of oral administration. Removal of blood is after 0.08, 0.25, 0.5, 1, 2, 3, 4, 6, 8 and 12 hours in the case of IV and, blood withdrawn after 0.25, 0.5, 1.0, 2, 3, 4, 6, 8 and 12 hours for oral administration.
Plasma is obtained by centrifuging the samples in heparinized tubes. IS containing Acetonitrile is added to a defined plasma volume per time point to precipitate proteins. After centrifugation, compound formula (B) and, where appropriate, known cleavage products of the compound formula (B) in the supernatant are determined quantitatively using a suitable LC/MS-MS method.
The measured plasma concentrations are used to calculate pharmacokinetic parameters of the test substance and of the active ingredient compound (A) liberated there from, such as AUC, Cmax, T½ (half-life) and CL (clearance).
Acetonitrile containing IS is added to the study samples, calibration samples and QCs, and the protein is precipitated using acetonitrile. Vortexed and centrifuged at 4000 rpm and the supernatant is injected by LC-MS/MS (API 4000, AB Sciex). Chromatographic separation is carried out on an Shimadzu UFLC. The injection volume is 10 μl. The separation column used is a Phenomenex Gemini NX 4.6×5μ. 100 mm, adjusted to a temperature of 30° C. […]
The plasma concentration/time plots determined are used to calculate the pharmacokinetic parameters such as AUC, Cmax, MRT (mean residence time), t½ (half life) and CL (clearance) employing the validated pharmacokinetic calculation programs.

[4] = system: CYP1A2, CYP2C9, CYP2D6, CYP2C19, CYP2J2 and CYP3A4; test: CYP inhibition assay, all isoforms (overall interpretation); format: in vitro ADME, human; settings: human, pooled human liver microsomes, pH 7.4; all assayed isoforms; minimal inhibition; read-out: inhibition of the CYP isoforms that were assayed
Protocol: (§1) The ability of substances to inhibit CYP1A2, CYP2C9, CYP2D6, CYP2C19, CYP2J2 and CYP3A4 in humans was investigated with pooled human liver microsomes as enzyme source in the presence of standard substrates (see below) which form CYP-isoform-specific metabolites.
(§2) Standard incubation mixtures comprise NADPH and substrates in 100 mM phosphate buffer (pH 7.4) in a total volume of 200 μl. Test compound are dissolved in acetonitrile. Incubated with pooled human liver microsomes at 37° C. for a defined time. The reactions are stopped by adding 100 μl of acetonitrile in which a suitable internal standard is always present. Precipitated proteins are removed by centrifugation, and the supernatants analyzed by LC-MS/MS. The data represents the extrapolated IC50 (μM) concentration derived from 3 μM.
(§3) This is an essential parameter to gauge drug-drug interactions.

[5] = system: CYP isoforms; test: as above; format: in vitro ADME, human; settings: with other drug when administered
Protocol: as §1, §2, §3

Observation: amount of test product [1]: Not quantificable amount | Observation: formed Rivaroxaban bound to plasma protein [1]: found to be moderate-High | Conversion: amount of test product detected [2]: min. Neglible | plasma exposure (AUC, C max) as compared to Rivaroxaban [3]: increased exposure | plasma exposure (AUC, C max) as compared to Rivaroxaban ([3]; listed as Test product): higher | detectability of test substance in plasma ([3]; after i.v. administration, at the first measurement point): no longer detectable in plasma | IC50 [4]: > 1000 nM
Structure (SMILES): O=CN(C[C@H]1CN(c2ccc(N3CCOCC3=O)cc2)C(=O)O1)C(=O)c1ccc(Cl)s1 [Compound formula B, 5-chloro-N-formyl-N-({(5S)-2-oxo-3-[4-(3-oxomorpholin-4-yl)phenyl]-1,3-oxazolidin-5-yl}methyl)thiophene-2-carboxamide]
Interpretation of CYP inhibition studies [5]: Low drug-drug interaction (compound formula-B

From patent publication US9359341B2, “Aldehyde derivative of substitute oxazolidinones” (WANBURY LTD., priority 2012, dated 2016)
